# Values joined by “and” are separate entries in the source; they are usually repeats but may differ in a detail not shown here. Equal entries are not always repeated. Where two headings read alike, the source gives them in different places. Marks after values point to notes of the source that are not given here.
# Assays:
# [1] = tested on: hCMEC/D3 mono-culture BBB model; conditions: human
# [2] = unbound fraction in brain, cited from earlier work
# in vitro [3] = conditions: human
# in vitro [4] = conditions: human; remark: listed apart in the source
# [5] = in situ brain perfusion in rodents, published permeability multiplied by VSA 150 cm^2/g, cited from earlier work
# [6] = tested on: hCMEC/D3 mono-culture BBB model; assay: In vitro BBB permeability study (Papp), hCMEC/D3 mono-culture BBB model; conditions: for PS: PS worked out from mean Papp
# [7] = tested on: triple co-culture BBB model (hCMEC/D3, U251 and SH-SY5Y cells); assay: In vitro BBB permeability study (Papp), triple co-culture BBB model; conditions: Triple co-culture BBB model; for PS: PS worked out from mean Papp
# [8] = In vitro BBB permeability study (Papp), hCMEC/D3 mono-culture BBB model; conditions: human
# [9] = In vitro BBB permeability study (Papp), triple co-culture BBB model; conditions: human
# VE-cadherin = assay: Western blot of VE-cadherin expression in hCMEC/D3 cells; type: cell-based, Homo sapiens; conditions: for GDNF-induced VE-cadherin expression: hCMEC/D3 cells, 200 pg/ml GDNF, 3 μM SPP-86, 5 μM PP2, 3 μM LY294002, 2 μM U0126, 5 μM SP600125, 2 μM SB203580, anti-GDNF antibody 0.25, 0.5, 1.0 μg/ml; for VE-cadherin/β-actin Relative Expression, Mean / VE-cadherin/β-actin Relative Expression: Figure 2G; for VE-cadherin/β-actin Relative Expression, Mean: Con = 1.000; for VE-cadherin/β-actin Relative Expression: relative to Con, single replicates
# Method: (§1) Whole-cell and tissue lysates, nucleoprotein, and cytoplasmic protein were prepared using RIPA Lysis Buffer (Beyotime, Shanghai, China) as the described method ([Wu et al., 2021]). Proteins were separated through sodium dodecyl sulfate–polyacrylamide gel electrophoresis and transferred onto nitrocellulose or polyvinylidene difluoride membranes. The membranes were blocked with 5% skim milk and incubated with corresponding primary antibodies at 4°C overnight. After being washed with Tris-buffered saline Tween buffer, the membranes were incubated with secondary antibodies (Cell Signaling Technology, MA, USA) at 1:3000 dilution: Anti-mouse IgG, HRP-linked Antibody (#7076), Anti-rabbit IgG, HRP-linked Antibody (#7074). Protein levels were visualized using a highly sensitive ECL western blotting substrate and a gel imaging system (Tanon Science & Technology, Shanghai, China).
# (§2) CM of U251 cells (U-CM), SH-SY5Y cells (S-CM), or co-culture of U251 and SH-SY5Y cells (US-CM) was prepared. U251 cells were seeded at the top of the insert membrane and suspended on 6-well plates seeded with differentiated SH-SY5Y cells to co-culture U251 cells with SH-SY5Y cells. The medium was collected every 24 hr. The CMs were subsequently used for hCMEC/D3 cell culture after filtrating with 0.2 μm filters for 144 hr. The levels of GDNF, bFGF, IGF-1, and TGF-β in CMs were measured using corresponding ELISA kits according to the manufacturers’ instructions.
# (§3) Exogenous and endogenous GDNF in the medium was neutralized with anti-GDNF antibody (#AF-212-NA, R&D system, Minneapolis, MN, USA). 0.25, 0.5, and 1.0 μg/ml anti-GDNF antibody was added into the US-CM or medium containing 200 pg/ml GDNF, and then the medium was preincubated at 4°C for 1 hr. The hCMEC/D3 cells were incubated with 200 pg/ml GDNF or US-CM containing anti-GDNF antibody or not for 6 days, and then cell lysate was collected for western blot. The medium was replaced every 24 hr.
# (§4) Here, hCMEC/D3 cells were plated in the plates or culture dishes at 6 × 10^4 cells/cm^2 and transfected with 10 nM of negative control or human FOXO1, ETS1, and CDH5 siRNA (Tsingke Biotechnology, Beijing, China) for 12 hr using Lipofectamine 3000 (Invitrogen, Carlsbad, CA, USA) reagent according to the manufacturer’s instructions. Cells were then incubated with a medium containing GDNF for 72 hr.
# claudin-5 = assay: Western blot of claudin-5 expression in hCMEC/D3 cells; type: cell-based, Homo sapiens; conditions: for GDNF-induced claudin-5 expression: 200 pg/ml GDNF, 3 μM SPP-86, 5 μM PP2, 3 μM LY294002, 2 μM U0126, 5 μM SP600125, 2 μM SB203580, anti-GDNF antibody 0.25, 0.5, 1.0 μg/ml; for Claudin-5/β-actin Relative Expression, Mean / Claudin-5/β-actin Relative Expression: Figure 2G; for Claudin-5/β-actin Relative Expression, Mean: Con = 1.000; for Claudin-5/β-actin Relative Expression: relative to Con, single replicates
# Method: as §1, §2, §3, §4
# The plasmids encoding FOXO1 (EX-Z7404-M02) were constructed by GeneCopoeia (Rockville, MD, USA). The hCMEC/D3 cells were plated in plates or dishes at 6 × 10^4 cells/cm^2. They were subsequently transfected with 1 µg of negative control or plasmids encoding FOXO1 6 hr using Lipofectamine 3000 reagent according to the manufacturer’s instructions. Transfected cells were then incubated with the medium containing GDNF for 72 hr.
# [10] = Papp, Mono, apical to basolateral, 30 min, 37°C, day 6, mean ± SEM, four biological replicates
# [11] = Papp, Triple, apical to basolateral, 30 min, 37°C, day 6, mean ± SEM, four biological replicates
compound,measurement,setting,value
CC(NC(C)(C)C)C(=O)c1cccc(Cl)c1 (stereo not shown) [Bupropion],"PSPre, Mono",[1],1139.58 µL/min/g
same,"fu, brain","[2]; ref Bhattacharya et al., 2021",0.12^§
same,Papp A→B at 30 min,"in vitro [3]; Papp, Mono",15.2 ± 0.2 ×10⁻⁶ cm/s
same,Papp A→B at 30 min,"in vitro [4]; Papp, Triple",11.3 ± 0.44 ×10⁻⁶ cm/s
COc1cc2nc(N3CCN(C(=O)c4ccco4)CC3)nc(N)c2cc1OC [Prazosin],Papp A→B at 30 min,in vitro [3]; Papp (individual replicate),4.56 ×10⁻⁶ cm/s
same,PSObs,"[5]; ref Di Marco et al., 2019",169.20^¶ ¶ μl/min/g
Nc1nnc(-c2cccc(Cl)c2Cl)c(N)n1 [Lamotrigine],"fu, brain","[2]; ref Summerfield et al., 2007",0.273^†
CNCCC(Oc1ccc(C(F)(F)F)cc1)c1ccccc1 (stereo not shown) [Fluoxetine],"fu, brain","[2]; ref Liu et al., 2005",0.00094
same,"fu, brain","[2]; ref Maurer et al., 2005",0.0023
same,"fu, brain","[2]; ref Summerfield et al., 2007",0.004^†
Cc1ncc2n1-c1ccc(Cl)cc1C(c1ccccc1F)=NC2 [Midazolam],"PSPre, Mono",[1],5060.00 µL/min/g
same,PS,[6]; Mono-culture BBB Model,5060.00 µL/min/g
same,"fu, brain","[2]; ref Kodaira et al., 2011",0.045^‡ ‡
same,Papp A→B,in vitro [3]; [10],25.3 ± 1 ×10⁻⁶ cm/s
same,PSObs,"[5]; ref Summerfield et al., 2007",2727.00^† μl/min/g
same,PS,[7],3818.00 µL/min/g
same,Papp A→B,"in vitro [4]; Papp Mean, Triple co-culture BBB model, mean of 4 replicates",19.1 ×10⁻⁶ cm/s
same,Papp A→B,in vitro [4]; [11],19.1 ± 0.24 ×10⁻⁶ cm/s
Cc1cc2c(s1)Nc1ccccc1N=C2N1CCN(C)CC1 [Olanzapine],"fu, brain","[2]; ref Summerfield et al., 2007",0.034^†
same,PSObs,"[5]; ref Summerfield et al., 2007",2279.70^† μl/min/g
COc1ccc(C(CN(C)C)C2(O)CCCCC2)cc1 (stereo not shown) [Venlafaxine],PS,[6]; Mono-culture BBB Model,420.60 µL/min/g
same,"PSPre, Mono","[6]; PSPre = Papp×60×VSA×1000/fu,brain, VSA 150 cm^2/g, from Papp, Mono",420.60 µL/min/g
same,Papp A→B,"[6]; read-out: Papp (individual replicate), Mono-culture BBB Model, single replicate values (4 per drug)",8.74 ×10⁻⁶ cm/s and 9.52 ×10⁻⁶ cm/s and 9.75 ×10⁻⁶ cm/s
same,Papp A→B at 30 min,"[8]; Papp (individual replicate), Mono-culture BBB Model, single replicate values (4 per drug)",10.3 ×10⁻⁶ cm/s
same,Papp A→B at 30 min,[8]; [10],9.58 ± 0.28 ×10⁻⁶ cm/s
same,"fu, brain","[2]; ref Esaki et al., 2019",0.205^*
same,PS,[7],362.02 µL/min/g
same,Papp A→B,"[7]; read-out: Papp (individual replicate), single replicate values (4 per drug)",8.5 ×10⁻⁶ cm/s and 9.29 ×10⁻⁶ cm/s and 7.72 ×10⁻⁶ cm/s
same,Papp A→B at 30 min,"[9]; Papp (individual replicate), Triple co-culture BBB model, single replicate values (4 per drug)",7.48 ×10⁻⁶ cm/s
same,Papp A→B at 30 min,[9]; [11],8.25 ± 0.36 ×10⁻⁶ cm/s
"C[S+]([O-])c1ccc(-c2nc(-c3ccncc3)c(-c3ccc(F)cc3)[nH]2)cc1 (stereo not shown) [SB203580, reference compound]",GDNF-induced VE-cadherin expression,VE-cadherin,almost no effect
same,GDNF-induced claudin-5 expression,claudin-5; hCMEC/D3 cells,almost no effect
NCC1(CC(=O)O)CCCCC1 [Gabapentin],"PSPre, Mono",[1],192.77 µL/min/g
same,PS,[6]; Mono-culture BBB Model,192.77 µL/min/g
same,"fu, brain","[2]; ref Summerfield et al., 2007",0.782^†
same,Papp A→B,"in vitro [3]; Papp Mean, Mono-culture BBB Model, mean of 4 replicates",16.7 ×10⁻⁶ cm/s
same,PSObs,"[5]; ref Summerfield et al., 2007",162.90^† μl/min/g
same,PS,[7],101.05 µL/min/g
same,Papp A→B,in vitro [4]; [11],8.78 ± 0.23 ×10⁻⁶ cm/s
TGF-β,"VE-cadherin/β-actin Relative Expression, Mean",VE-cadherin; 0.5 ng,1.041
same,VE-cadherin/β-actin Relative Expression,VE-cadherin; 0.5 ng,1.060 and 0.953 and 1.005 and 1.147
same,"VE-cadherin/β-actin Relative Expression, Mean",VE-cadherin; 2 ng,1.010
same,VE-cadherin/β-actin Relative Expression,VE-cadherin; 2 ng,0.849 and 1.087 and 1.125 and 0.979
same,"VE-cadherin/β-actin Relative Expression, Mean",VE-cadherin; 5 ng,0.834
same,VE-cadherin/β-actin Relative Expression,VE-cadherin; 5 ng,0.847 and 0.832 and 0.952 and 0.705
same,"Claudin-5/β-actin Relative Expression, Mean",claudin-5; 0.5 ng,0.967
same,Claudin-5/β-actin Relative Expression,claudin-5; 0.5 ng,0.910 and 1.017 and 1.003 and 0.937
same,"Claudin-5/β-actin Relative Expression, Mean",claudin-5; 2 ng,0.982
same,Claudin-5/β-actin Relative Expression,claudin-5; 2 ng,0.870 and 1.019 and 1.090 and 0.947
same,"Claudin-5/β-actin Relative Expression, Mean",claudin-5; 5 ng,0.716
same,Claudin-5/β-actin Relative Expression,claudin-5; 5 ng,0.653 and 0.618 and 0.959 and 0.634
same,claudin-5 expression,"claudin-5; hCMEC/D3 cells, high level (5 ng/ml) of TGF-β",slightly downregulated
Cc1nc2n(c(=O)c1CCN1CCC(c3noc4cc(F)ccc34)CC1)CCCC2 [Risperidone],PSObs,"[5]; ref Summerfield et al., 2007",849.60^† μl/min/g
"Oc1c2ccccc2c2c3c(cccc13)N=N2 [SP600125, reference compound]",GDNF-induced VE-cadherin expression,VE-cadherin,almost no effect
same,GDNF-induced claudin-5 expression,claudin-5; hCMEC/D3 cells,almost no effect
